Results published in paper PMC6429585, “Synthesis, Microtubule-Binding Affinity, and Antiproliferative Activity of New Epothilone Analogs and of an EGFR-Targeted Epothilone-Peptide Conjugate” (International Journal of Molecular Sciences, 2019).
Read-outs that look alike come from different tables or passages of the source.

How the values were obtained:
human cancer cells = tested on: human cancer cells; design: method as in PMID 7757983, PMID 8999970; details: cited from earlier work
SW480 cells = assay: cells; type: cell-based, human; details: 72 h incubation, mean of three experiments ± SD; read-out: IC50 SW480
Experimental: (§1) Experiments were performed in RPMI (SW480 cells) or DMEM (HEK293 and A431 cells) medium (Gibco) supplemented with 2 mM glutamine, 10% fetal bovine serum, 100 IU/mL penicillin, 100 µg/mL streptomycin, and 1 µg/mL amphotericin B (all from Sigma) at 37 °C and 5% CO2. Cells were seeded into 96-well microtiter plates and compounds were added in DMSO in serial dilutions in triplicate. The final DMSO (dimethylsulfoxide) concentration was 0.1%. After 72 h, a WST-1 reagent was added and the absorption was measured at 450 nm with a plate reader after 30 min to 4 h. The percentage of viable cells was calculated based on vehicle-treated cells and was plotted in GraphPadPrism. At least three independent experiments were performed.
(§2) A431 cells were obtained from CLS. The other cell lines were available in the laboratory. WST-1 was purchased from Roche.

HEK293 cells = assay: cells; type: cell-based, human; details: 72 h incubation, mean of three experiments ± SD; read-out: IC50 HEK293
Experimental: as §1, §2

A431 cells = assay: cells; type: cell-based, human; details: 72 h incubation, mean of three experiments ± SD; read-out: IC50 A431
Experimental: as §1, §2

[1] = Stability in complete cell culture medium (RP-HPLC); type: in vitro ADME; details: bovine, complete cell culture medium (RPMI with 10% FBS); 8.6 μM solution in RPMI with 10% FBS, 3 days, 37 °C; read-out: degradation in cell culture medium
Experimental: The stability of the epothilone-GE11 conjugate 4 in complete cell culture medium was evaluated under conditions resembling those encountered in the cytotoxicity assays. Thus, an 8.6 μM solution of 4 in RPMI with 10% FBS was incubated for 3 days at 37 °C and subsequently analyzed by RP-HPLC. Only minor degradation of 4 (<10%) was observed under these conditions (data not shown).
Synthesis, Microtubule-Binding Affinity and Antiproliferative Activity of New Epothilone Analogs and of an EGFR-Targeted Epothilone-Peptide
Fabienne Zdenka Gaugaz, Andrea Chicca, Mariano Redondo, Isabel Barasoain, José Fernando Díaz, and Karl-Heinz Altmann*
SI.1. EGFR Expression Quantification
EGFR expression levels were determined by treating cells with 1 µg/ml Cetuximab or human IgG isotype antibody and staining with a secondary Alexa Fluor 647 goat anti-human IgG.[49] The fluorescence was quantified by FACS on a FACSCanto device with a FACSDiva software and later analyzed with FlowJo (Fig. S1). […]
Figure S1: Relative quantification of EGF receptors by FACS. […]
The stability of 4 in cell culture medium was evaluated by analytical RP-HPLC. […] The mixture was centrifuged and 10 µL of the supernatant were analyzed by analytical HPLC: H2O with 0.1% TFA (A) / acetonitrile/H2O 8/2 with 0.05% TFA (B). […]

[2] = Glutathione cleavage assay (reductive disulfide cleavage, RP-HPLC); type: physicochemical; details: 10 mM GSH
Experimental: The reductive cleavage of conjugate 4 was analyzed under conditions mimicking those found in the endosome and the cytoplasm of cancer cells. Endosome-like conditions were assumed to be reproduced by a 10 mM solution of glutathione (GSH) in acetate and phosphate buffer pH 4.9; cytoplasm-like conditions entailed 10 mM GSH in phosphate buffer pH 7.4.
For cytoplasm-like conditions, 100 µL of a […] solution of conjugate 4 in degassed 100 mM phosphate buffer pH 7.4 were diluted with 400 µL of a degassed phosphate buffer and 500 µL of 20 mM glutathione in 100 mM phosphate buffer pH 7.4. Aliquots of 80 µL were removed at predefined time points, and the reaction was quenched with one volume of 10% metaphosphoric acid, giving a pH of 1 approximately. Fifty microliters of this solution were analyzed by analytical RP-HPLC. The same protocol was used for cleavage under endosome-like conditions, except that the glutathione solution was prepared in a 100 mM acetate buffer at pH 4.8, and the same buffer was also used to dilute the conjugate solution in a 100 mM phosphate buffer at pH 7.4. The final pH of the cleavage solution was 4.9.
Analytical RP-HPLC: H2O with 0.1% TFA (A)/acetonitrile/water 8/2 with 0.05% TFA (B). Linear gradient from 5% B to 80% B over 30 min. The percentage of remaining conjugate in the solutions was plotted against time (Figure 3). Analysis of the cleavage solutions by LC/MS provided information of the fractions of the various components in the redox mixture.
Figure 3 Kinetics of glutathione (GSH)-mediated reduction of epothilone-peptide conjugate 4 (173 µM 4, 10 mM GSH, pH 4.9 (endosome-like conditions), triangles, or pH 7.4 (cytoplasm-like conditions), circles). Conjugate 4 was added to the respective GSH solutions as a solution in phosphate buffer pH 7.4 at room temperature, to reach a total concentration of 173 μM. Samples were quenched at different time points with 10% metaphosphoric acid and analyzed by RP-HPLC. […]

Row | SMILES | IC50 values for most cell lines (human cancer cells) | IC50 (SW480 cells) [nM] | IC50 (HEK293 cells) [nM] | IC50 (A431 cells) [nM] | metabolised at 72 h, 8.6 μM [1] [%] | half-life at 173 µM ([2]; acetate and phosphate buffer pH 4.9, read-out: half-life, endosome-like conditions) [s] | residual conjugate 1 min after addition, cytoplasm-like conditions ([2]; phosphate buffer pH 7.4, 1 min) | half-life at 173 µM ([2]; phosphate buffer pH 7.4, read-out: estimated half-life, cytoplasm-like conditions) [s]
1 | C/C(=C\c1csc(C)n1)[C@@H]1C[C@@H]2O[C@]2(C)CCC[C@H](C)[C@H](O)[C@@H](C)C(=O)C(C)(C)[C@@H](O)CC(=O)O1 [Epo B, Epothilone B] | sub-nanomolar |  |  |  |  |  |  | 
2 | CC[C@H](C)[C@H](NC(=O)[C@@H](NC(=O)[C@H](CC(N)=O)NC(=O)[C@H](CCC(N)=O)NC(=O)[C@@H]1CCCN1C(=O)[C@@H](NC(=O)[C@H](Cc1ccc(O)cc1)NC(=O)CNC(=O)[C@H](Cc1ccc(O)cc1)NC(=O)[C@H](Cc1c[nH]c2ccccc12)NC(=O)[C@H](Cc1c[nH]cn1)NC(=O)[C@H](Cc1ccc(O)cc1)NC(=O)[C@@H](N)CSSCCn1c(C)nc2cc([C@@H]3C[C@@H]4C[C@H]4CCC[C@H](C)[C@H](O)[C@@H](C)C(=O)C(C)(C)CCC(=O)O3)ccc21)[C@@H](C)O)C(C)C)C(N)=O [compound 4] |  | 181 ± 25.9 | 31.1 ± 6.21 | 74.7 ± 6.65 | < 10 | 66 | no residual conjugate was detectable | ~12
